Source: the supplement of paper PMC10307832

How the values were obtained:
Experiment in all cases: relative viability (nuclei count vs DMSO), 5 days (fraction); higher = more cells survive
Crenolanib + Palbociclib = compound: CC1(COc2ccc3c(c2)ncn3-c2ccc3cccc(N4CCC(N)CC4)c3n2)COC1 [Crenolanib] + CC(=O)c1c(C)c2cnc(Nc3ccc(N4CCNCC4)cn3)nc2n(C2CCCC2)c1=O [Palbociclib] (partner 0.5 µM)
Method in brief: (§1)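 Lung cancer cell lines, seeded in 1536-well plates, were treated the following day by pin tool with a single drug or with five library-drug doses (not always all listed) in √10 steps on top of a fixed anchor-drug dose. Cells were fixed and nuclei stained in one step after 5 days, and nuclei were counted. Relative viability is the nuclei count for treated wells divided by that for vehicle wells, reported as medians of duplicate plates.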

Tivantinib + Palbociclib = compound: O=C1NC(=O)[C@@H](c2cn3c4c(cccc24)CCC3)[C@@H]1c1c[nH]c2ccccc12 [Tivantinib] + CC(=O)c1c(C)c2cnc(Nc3ccc(N4CCNCC4)cn3)nc2n(C2CCCC2)c1=O [Palbociclib] (partner 0.5 µM)
Method in brief: as §1

Crenolanib + AZD7762 = compound: CC1(COc2ccc3c(c2)ncn3-c2ccc3cccc(N4CCC(N)CC4)c3n2)COC1 [Crenolanib] + NC(=O)Nc1cc(-c2cccc(F)c2)sc1C(=O)N[C@H]1CCCNC1 [AZD7762] (partner 0.2 µM)
Method in brief: as §1

Crenolanib + Luminespib = compound: CC1(COc2ccc3c(c2)ncn3-c2ccc3cccc(N4CCC(N)CC4)c3n2)COC1 [Crenolanib] + CCNC(=O)c1noc(-c2cc(C(C)C)c(O)cc2O)c1-c1ccc(CN2CCOCC2)cc1 [Luminespib] (partner 0.01 µM)
Method in brief: as §1

Cell Line RERF-LC-KJ has a relative viability (Crenolanib + Palbociclib; first compound 0.01 µM) of 1.13, a relative viability (Crenolanib + Palbociclib; first compound 0.03162 µM) of 1.03 and a relative viability (Crenolanib + Palbociclib; first compound 0.1 µM) of 1.03. The relative viability (Crenolanib + Palbociclib; first compound 0.3162 µM) was 1.1, the relative viability (Crenolanib + Palbociclib; first compound 1 µM) was 1.05 and the relative viability (Tivantinib + Palbociclib; first compound 0.01 µM) was 0.644. For the same cell line, the relative viability (Tivantinib + Palbociclib; first compound 0.03162 µM) was 1.1, the relative viability (Tivantinib + Palbociclib; first compound 0.1 µM) was 1.01 and the relative viability (Tivantinib + Palbociclib; first compound 0.3162 µM) was 0.647. For the same cell line, the relative viability (Crenolanib + AZD7762; first compound 0.01 µM) was 1.19, the relative viability (Crenolanib + AZD7762; first compound 0.03162 µM) was 0.739 and the relative viability (Crenolanib + AZD7762; first compound 0.1 µM) was 0.896. It also gave a relative viability (Crenolanib + AZD7762; first compound 0.3162 µM) of 0.894, a relative viability (Crenolanib + AZD7762; first compound 1 µM) of 1.04 and a relative viability (Crenolanib + Luminespib; first compound 0.01 µM) of 1.31. It also gave a relative viability (Crenolanib + Luminespib; first compound 0.03162 µM) of 1.28, a relative viability (Crenolanib + Luminespib; first compound 0.1 µM) of 1.04 and a relative viability (Crenolanib + Luminespib; first compound 0.3162 µM) of 1.31. It also gave a relative viability (Crenolanib + Luminespib; first compound 1 µM) of 1.18.

For NCI-H1703, the relative viability (Crenolanib + AZD7762; first compound 0.01 µM) was 0.143, the relative viability (Crenolanib + AZD7762; first compound 0.03162 µM) was 0.131 and the relative viability (Crenolanib + AZD7762; first compound 0.1 µM) was 0.114. For the same cell line, the relative viability (Crenolanib + AZD7762; first compound 0.3162 µM) was 0.116 and the relative viability (Crenolanib + AZD7762; first compound 1 µM) was 0.113.

Cell Line SW 1573 has a relative viability (Crenolanib + Palbociclib; first compound 0.01 µM) of 0.369, a relative viability (Crenolanib + Palbociclib; first compound 0.03162 µM) of 0.458 and a relative viability (Crenolanib + Palbociclib; first compound 0.1 µM) of 0.422. For the same cell line, the relative viability (Crenolanib + Palbociclib; first compound 0.3162 µM) was 0.368, the relative viability (Crenolanib + Palbociclib; first compound 1 µM) was 0.42 and the relative viability (Tivantinib + Palbociclib; first compound 0.01 µM) was 0.464. For the same cell line, the relative viability (Tivantinib + Palbociclib; first compound 0.03162 µM) was 0.384, the relative viability (Tivantinib + Palbociclib; first compound 0.1 µM) was 0.32 and the relative viability (Tivantinib + Palbociclib; first compound 0.3162 µM) was 0.343. It also gave a relative viability (Crenolanib + Luminespib; first compound 0.01 µM) of 0.833, a relative viability (Crenolanib + Luminespib; first compound 0.03162 µM) of 0.283 and a relative viability (Crenolanib + Luminespib; first compound 0.1 µM) of 0.152. It also gave a relative viability (Crenolanib + Luminespib; first compound 0.3162 µM) of 0.54 and a relative viability (Crenolanib + Luminespib; first compound 1 µM) of 0.16.

For COR-L 105, the relative viability (Crenolanib + Palbociclib; first compound 0.01 µM) was 0.435, the relative viability (Crenolanib + Palbociclib; first compound 0.03162 µM) was 0.467 and the relative viability (Crenolanib + Palbociclib; first compound 0.1 µM) was 0.436. It also gave a relative viability (Crenolanib + Palbociclib; first compound 0.3162 µM) of 0.379, a relative viability (Crenolanib + Palbociclib; first compound 1 µM) of 0.417 and a relative viability (Tivantinib + Palbociclib; first compound 0.01 µM) of 0.441. The relative viability (Tivantinib + Palbociclib; first compound 0.03162 µM) was 0.385, the relative viability (Tivantinib + Palbociclib; first compound 0.1 µM) was 0.436 and the relative viability (Tivantinib + Palbociclib; first compound 0.3162 µM) was 0.375. It also gave a relative viability (Crenolanib + Luminespib; first compound 0.01 µM) of 1.12, a relative viability (Crenolanib + Luminespib; first compound 0.03162 µM) of 0.973 and a relative viability (Crenolanib + Luminespib; first compound 0.1 µM) of 0.743. For the same cell line, the relative viability (Crenolanib + Luminespib; first compound 0.3162 µM) was 0.859 and the relative viability (Crenolanib + Luminespib; first compound 1 µM) was 0.732.

With NCI-H2009 the relative viability (Crenolanib + Palbociclib; first compound 0.01 µM) was 0.219, the relative viability (Crenolanib + Palbociclib; first compound 0.03162 µM) was 0.22 and the relative viability (Crenolanib + Palbociclib; first compound 0.1 µM) was 0.251. The relative viability (Crenolanib + Palbociclib; first compound 0.3162 µM) was 0.186, the relative viability (Crenolanib + Palbociclib; first compound 1 µM) was 0.19 and the relative viability (Tivantinib + Palbociclib; first compound 0.01 µM) was 0.267. The relative viability (Tivantinib + Palbociclib; first compound 0.03162 µM) was 0.186, the relative viability (Tivantinib + Palbociclib; first compound 0.1 µM) was 0.126 and the relative viability (Tivantinib + Palbociclib; first compound 0.3162 µM) was 0.207. The relative viability (Crenolanib + Luminespib; first compound 0.01 µM) was 1.04, the relative viability (Crenolanib + Luminespib; first compound 0.03162 µM) was 1.08 and the relative viability (Crenolanib + Luminespib; first compound 0.1 µM) was 1.06. It also gave a relative viability (Crenolanib + Luminespib; first compound 0.3162 µM) of 1.11 and a relative viability (Crenolanib + Luminespib; first compound 1 µM) of 0.982.

Cell Line SK-LU-1 has a relative viability (Crenolanib + Palbociclib; first compound 0.01 µM) of 0.368, a relative viability (Crenolanib + Palbociclib; first compound 0.03162 µM) of 0.394 and a relative viability (Crenolanib + Palbociclib; first compound 0.1 µM) of 0.328. For the same cell line, the relative viability (Crenolanib + Palbociclib; first compound 0.3162 µM) was 0.412, the relative viability (Crenolanib + Palbociclib; first compound 1 µM) was 0.333 and the relative viability (Tivantinib + Palbociclib; first compound 0.01 µM) was 0.42. The relative viability (Tivantinib + Palbociclib; first compound 0.03162 µM) was 0.394, the relative viability (Tivantinib + Palbociclib; first compound 0.1 µM) was 0.423 and the relative viability (Tivantinib + Palbociclib; first compound 0.3162 µM) was 0.34. For the same cell line, the relative viability (Crenolanib + Luminespib; first compound 0.01 µM) was 0.205, the relative viability (Crenolanib + Luminespib; first compound 0.03162 µM) was 0.246 and the relative viability (Crenolanib + Luminespib; first compound 0.1 µM) was 0.217. It also gave a relative viability (Crenolanib + Luminespib; first compound 0.3162 µM) of 0.208 and a relative viability (Crenolanib + Luminespib; first compound 1 µM) of 0.211.
